{"source": "patent US20160038468A1", "about": "(priority 2013, published 2016)", "format_in_all_cases": "cell-based", "key": {"Prevotella amnii": {"tested_on": "Prevotella amnii", "assay": "Agar dilution MIC (CLSI), Prevotella amnii vaginal isolates", "conditions": "Prevotella amnii; # tested 33"}, "Prevotella bivia": {"tested_on": "Prevotella bivia", "assay": "Agar dilution MIC (CLSI), Prevotella bivia vaginal isolates", "conditions": "for Number of strains with indicated MIC: 34 samples; for MIC: read-out: Minimal Inhibitory Concentration (MIC)"}, "Gardnerella vaginalis": {"tested_on": "Gardnerella vaginalis", "assay": "Agar dilution MIC (CLSI), Gardnerella vaginalis vaginal isolates", "conditions": "for Number of strains with indicated MIC: 100 samples"}, "M. curtisii": {"tested_on": "M. curtisii", "assay": "Agar dilution MIC (CLSI), M. curtisii vaginal isolates", "conditions": "14 samples"}, "Peptoniphilus lacrimalis": {"tested_on": "Peptoniphilus lacrimalis", "assay": "Agar dilution MIC (CLSI), Peptoniphilus lacrimalis vaginal isolates", "conditions": "for MIC: read-out: Minimal Inhibitory Concentration (MIC)"}, "[1]": {"conditions": "Gardnerella vaginalis, # tested 107"}, "[2]": {"conditions": "Peptoniphilus lacrimalis, # tested 20"}}, "note": "Read-outs that look alike come from different tables or passages of the source."}
{"smiles": "Cc1ncc([N+](=O)[O-])n1CCO", "note": "[Metronidazole]", "values": [{"measurement": "MIC50", "setting": "Prevotella amnii", "value": 1, "unit": "µg/mL"}, {"measurement": "MIC90", "setting": "Prevotella amnii", "value": 2, "unit": "µg/mL"}, {"measurement": "MIC Range", "setting": "Prevotella bivia; # tested 34", "value": "4 to 16", "unit": "µg/mL"}, {"measurement": "Number of strains with indicated MIC", "setting": "Prevotella bivia; MIC 8 μg/ml", "value": 6}, {"measurement": "Number of strains with indicated MIC", "setting": "Prevotella bivia; MIC 16 μg/ml", "value": 13}, {"measurement": "Number of strains with indicated MIC", "setting": "Prevotella bivia; MIC […] μg/ml", "value": 15}, {"measurement": "MIC", "setting": "Prevotella bivia; Prevotella bivia, isolate 601096 25", "value": 4, "unit": "µg/mL"}, {"measurement": "MIC", "setting": "Prevotella bivia; Prevotella bivia, isolate 601166 M", "value": 16, "unit": "µg/mL"}, {"measurement": "MIC", "setting": "Prevotella bivia; Prevotella bivia, isolate 601202 21", "value": 16, "unit": "µg/mL"}, {"measurement": "MIC", "setting": "Prevotella bivia; Prevotella bivia, isolate 601203 5", "value": 4, "unit": "µg/mL"}, {"measurement": "MIC", "setting": "Prevotella bivia; Prevotella bivia, isolate 601209 A1", "value": 4, "unit": "µg/mL"}, {"measurement": "MIC", "setting": "Prevotella bivia; Prevotella bivia, isolate 601212 9", "value": 4, "unit": "µg/mL"}, {"measurement": "MIC", "setting": "Prevotella bivia; Prevotella bivia, isolate 601213 9A", "value": 16, "unit": "µg/mL"}, {"measurement": "MIC", "setting": "Prevotella bivia; Prevotella bivia, isolate 601214 B", "value": 16, "unit": "µg/mL"}, {"measurement": "MIC", "setting": "Prevotella bivia; Prevotella bivia, isolate 601241 13", "value": 4, "unit": "µg/mL"}, {"measurement": "MIC", "setting": "Prevotella bivia; Prevotella bivia, isolate 601243 15", "value": 16, "unit": "µg/mL"}, {"measurement": "MIC", "setting": "Prevotella bivia; Prevotella bivia, isolate 601255 10", "value": 4, "unit": "µg/mL"}, {"measurement": "MIC", "setting": "Prevotella bivia; Prevotella bivia, isolate 601261 C", "value": 4, "unit": "µg/mL"}, {"measurement": "MIC", "setting": "Prevotella bivia; Prevotella bivia, isolate 601283 20", "value": 16, "unit": "µg/mL"}, {"measurement": "MIC", "setting": "Prevotella bivia; Prevotella bivia, isolate 601285 14", "value": 4, "unit": "µg/mL"}, {"measurement": "MIC", "setting": "Prevotella bivia; Prevotella bivia, isolate 601293 22", "value": 8, "unit": "µg/mL"}, {"measurement": "MIC", "setting": "Prevotella bivia; Prevotella bivia, isolate 601305 H", "value": 16, "unit": "µg/mL"}, {"measurement": "MIC", "setting": "Prevotella bivia; Prevotella bivia, isolate 601340 31", "value": 4, "unit": "µg/mL"}, {"measurement": "MIC", "setting": "Prevotella bivia; Prevotella bivia, isolate 601355 B", "value": 8, "unit": "µg/mL"}, {"measurement": "MIC", "setting": "Prevotella bivia; Prevotella bivia, isolate 601367 M", "value": 8, "unit": "µg/mL"}, {"measurement": "MIC", "setting": "Prevotella bivia; Prevotella bivia, isolate 601374 A1", "value": 16, "unit": "µg/mL"}, {"measurement": "MIC", "setting": "Prevotella bivia; Prevotella bivia, isolate 601378 B", "value": 16, "unit": "µg/mL"}, {"measurement": "MIC", "setting": "Prevotella bivia; Prevotella bivia, isolate 601379 19", "value": 16, "unit": "µg/mL"}, {"measurement": "MIC", "setting": "Prevotella bivia; Prevotella bivia, isolate 601388 T", "value": 4, "unit": "µg/mL"}, {"measurement": "MIC", "setting": "Prevotella bivia; Prevotella bivia, isolate 601389 10", "value": 4, "unit": "µg/mL"}, {"measurement": "MIC", "setting": "Prevotella bivia; Prevotella bivia, isolate 601389 J", "value": 4, "unit": "µg/mL"}, {"measurement": "MIC", "setting": "Prevotella bivia; Prevotella bivia, isolate 601392 14", "value": 4, "unit": "µg/mL"}, {"measurement": "MIC", "setting": "Prevotella bivia; Prevotella bivia, isolate 601409 V", "value": 4, "unit": "µg/mL"}, {"measurement": "MIC", "setting": "Prevotella bivia; Prevotella bivia, isolate 601410 12", "value": 4, "unit": "µg/mL"}, {"measurement": "MIC", "setting": "Prevotella bivia; Prevotella bivia, isolate 601429 1", "value": 8, "unit": "µg/mL"}, {"measurement": "MIC", "setting": "Prevotella bivia; Prevotella bivia, isolate 601433 19", "value": 8, "unit": "µg/mL"}, {"measurement": "MIC", "setting": "Prevotella bivia; Prevotella bivia, isolate 601449 E", "value": 16, "unit": "µg/mL"}, {"measurement": "MIC", "setting": "Prevotella bivia; Prevotella bivia, isolate 601453 A", "value": 8, "unit": "µg/mL"}, {"measurement": "MIC", "setting": "Prevotella bivia; Prevotella bivia, isolate 601455 D1", "value": 16, "unit": "µg/mL"}, {"measurement": "MIC", "setting": "Prevotella bivia; Prevotella bivia, isolate 601458 16", "value": 16, "unit": "µg/mL"}, {"measurement": "MIC50", "setting": "Prevotella bivia; Prevotella bivia, # tested 34", "value": 8, "unit": "µg/mL"}, {"measurement": "MIC90", "setting": "Prevotella bivia; Prevotella bivia, # tested 34", "value": 16, "unit": "µg/mL"}, {"measurement": "Susceptible", "setting": "Prevotella bivia; number (%) of isolates, # tested 34", "value": "21 (62) μg/ml"}, {"measurement": "activity against G vaginalis", "setting": "Gardnerella vaginalis", "value": "limited activity"}, {"measurement": "MIC50", "setting": "Gardnerella vaginalis; [1]", "value": 64, "unit": "µg/mL"}, {"measurement": "MIC90", "setting": "Gardnerella vaginalis; [1]", "value": "> 128", "unit": "µg/mL"}, {"measurement": "Number of strains with indicated MIC", "setting": "Gardnerella vaginalis; MIC 8 μg/ml", "value": 12}, {"measurement": "Number of strains with indicated MIC", "setting": "Gardnerella vaginalis; MIC 16 μg/ml", "value": 16}, {"measurement": "Number of strains with indicated MIC", "setting": "Gardnerella vaginalis; MIC 32 μg/ml", "value": 14}, {"measurement": "Number of strains with indicated MIC", "setting": "Gardnerella vaginalis; MIC 64 μg/ml", "value": 15}, {"measurement": "Number of strains with indicated MIC", "setting": "Gardnerella vaginalis; MIC >[…]", "value": 34}, {"measurement": "Number of strains with indicated MIC", "setting": "Gardnerella vaginalis; MIC […]", "value": 6}, {"measurement": "Number of strains with indicated MIC", "setting": "M. curtisii; MIC 64 μg/ml", "value": 3}, {"measurement": "Number of strains with indicated MIC", "setting": "M. curtisii; MIC >[…]", "value": 11}, {"measurement": "MIC Range", "setting": "Peptoniphilus lacrimalis; # tested 20", "value": "0.5 to 4", "unit": "µg/mL"}, {"measurement": "MIC", "setting": "Peptoniphilus lacrimalis; Peptoniphilus lacrimalis, isolate 601028V 27A", "value": 2, "unit": "µg/mL"}, {"measurement": "MIC", "setting": "Peptoniphilus lacrimalis; Peptoniphilus lacrimalis, isolate 601060V 32A", "value": 2, "unit": "µg/mL"}, {"measurement": "MIC", "setting": "Peptoniphilus lacrimalis; Peptoniphilus lacrimalis, isolate 601078V O", "value": 1, "unit": "µg/mL"}, {"measurement": "MIC", "setting": "Peptoniphilus lacrimalis; Peptoniphilus lacrimalis, isolate 601084V c", "value": 4, "unit": "µg/mL"}, {"measurement": "MIC", "setting": "Peptoniphilus lacrimalis; Peptoniphilus lacrimalis, isolate 601105V 13", "value": 4, "unit": "µg/mL"}, {"measurement": "MIC", "setting": "Peptoniphilus lacrimalis; Peptoniphilus lacrimalis, isolate 601139V 17", "value": 4, "unit": "µg/mL"}, {"measurement": "MIC", "setting": "Peptoniphilus lacrimalis; Peptoniphilus lacrimalis, isolate 601213V 17", "value": 2, "unit": "µg/mL"}, {"measurement": "MIC", "setting": "Peptoniphilus lacrimalis; Peptoniphilus lacrimalis, isolate 601255V 12", "value": 1, "unit": "µg/mL"}, {"measurement": "MIC", "setting": "Peptoniphilus lacrimalis; Peptoniphilus lacrimalis, isolate 601261V O", "value": 1, "unit": "µg/mL"}, {"measurement": "MIC", "setting": "Peptoniphilus lacrimalis; Peptoniphilus lacrimalis, isolate 601293V 15", "value": 1, "unit": "µg/mL"}, {"measurement": "MIC", "setting": "Peptoniphilus lacrimalis; Peptoniphilus lacrimalis, isolate 601296V N", "value": 1, "unit": "µg/mL"}, {"measurement": "MIC", "setting": "Peptoniphilus lacrimalis; Peptoniphilus lacrimalis, isolate 601305V K-1", "value": 1, "unit": "µg/mL"}, {"measurement": "MIC", "setting": "Peptoniphilus lacrimalis; Peptoniphilus lacrimalis, isolate 601318V E", "value": 1, "unit": "µg/mL"}, {"measurement": "MIC", "setting": "Peptoniphilus lacrimalis; Peptoniphilus lacrimalis, isolate 601330V H", "value": 1, "unit": "µg/mL"}, {"measurement": "MIC", "setting": "Peptoniphilus lacrimalis; Peptoniphilus lacrimalis, isolate 601336V 47", "value": 1, "unit": "µg/mL"}, {"measurement": "MIC", "setting": "Peptoniphilus lacrimalis; Peptoniphilus lacrimalis, isolate 601365V 13", "value": 2, "unit": "µg/mL"}, {"measurement": "MIC", "setting": "Peptoniphilus lacrimalis; Peptoniphilus lacrimalis, isolate 601368V 39", "value": 0.5, "unit": "µg/mL"}, {"measurement": "MIC", "setting": "Peptoniphilus lacrimalis; Peptoniphilus lacrimalis, isolate 601375V E", "value": 1, "unit": "µg/mL"}, {"measurement": "MIC", "setting": "Peptoniphilus lacrimalis; Peptoniphilus lacrimalis, isolate 601388V B", "value": 1, "unit": "µg/mL"}, {"measurement": "MIC", "setting": "Peptoniphilus lacrimalis; Peptoniphilus lacrimalis, isolate 601401V I", "value": 1, "unit": "µg/mL"}, {"measurement": "MIC50", "setting": "Peptoniphilus lacrimalis; [2]", "value": 1, "unit": "µg/mL"}, {"measurement": "MIC90", "setting": "Peptoniphilus lacrimalis; [2]", "value": 4, "unit": "µg/mL"}]}
